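How tested: cells in 96-well plates exposed to compound for 48 hours at five concentrations. GI50 is the concentration that inhibits growth by half.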 The source made the active and inactive calls. Rule as the data show it: active = GI50 up to about 1.1 µM and inactive = higher.
Columns and labels:
Assay in all cases: DTP human tumour cell line panel, 48 h
HT-29 = test system: HT-29
IGROV-1 = test system: IGROV-1
DU-145 = test system: DU-145
A498 = test system: A498
MCF7 = test system: MCF7
SW-620 = test system: SW-620
UACC-62 = test system: UACC-62
LOX IMVI = test system: LOX IMVI
HCT-116 = test system: HCT-116
SK-OV-3 = test system: SK-OV-3
COLO 205 = test system: COLO 205
MDA-N = test system: MDA-N
RXF 393 = test system: RXF 393
OVCAR-8 = test system: OVCAR-8
MOLT-4 = test system: MOLT-4
NCI-H460 = test system: NCI-H460
UACC-257 = test system: UACC-257
TK-10 = test system: TK-10
KM12 = test system: KM12
HL-60 = test system: HL-60
HOP-62 = test system: HOP-62
SK-MEL-5 = test system: SK-MEL-5
PC-3 = test system: PC-3
CCRF-CEM = test system: CCRF-CEM
HCC 2998 = test system: HCC 2998
NCI/ADR-RES = test system: NCI/ADR-RES
SNB-75 = test system: SNB-75
OVCAR-3 = test system: OVCAR-3
HCT-15 = test system: HCT-15
U-251 = test system: U-251
SR = test system: SR
786-0 = test system: 786-0
SN12C = test system: SN12C
Malme-3M = test system: Malme-3M
M14 = test system: M14
OVCAR-5 = test system: OVCAR-5
SNB-19 = test system: SNB-19
NCI-H23 = test system: NCI-H23
Hs-578T = test system: Hs-578T
RPMI-8226 = test system: RPMI-8226
SF-295 = test system: SF-295
K562 = test system: K562
SK-MEL-28 = test system: SK-MEL-28
OVCAR-4 = test system: OVCAR-4
NCI-H226 = test system: NCI-H226
MDA-MB-435 = test system: MDA-MB-435
SK-MEL-2 = test system: SK-MEL-2
BT-549 = test system: BT-549
T47D = test system: T47D
SF-268 = test system: SF-268
NCI-H522 = test system: NCI-H522
UO-31 = test system: UO-31
MDA-MB-231 = test system: MDA-MB-231
A549 = test system: A549
SF-539 = test system: SF-539
ACHN = test system: ACHN
HOP-92 = test system: HOP-92
EKVX = test system: EKVX
CAKI-1 = test system: CAKI-1

With `CC1(C)CCCCC1/C=C/C(CC(O)(C(F)(F)F)C(F)(F)F)=N\Nc1ccc([N+](=O)[O-])cc1[N+](=O)[O-]` (centres undefined) the GI50 (HT-29) was 1.76 µM (inactive), the GI50 (IGROV-1) was 0.514 µM (active) and the GI50 (DU-145) was 2.52 µM (inactive). For the same molecule, the GI50 (A498) was 1.25 µM (inactive), the GI50 (MCF7) was 0.573 µM (active) and the GI50 (SW-620) was 1.86 µM (inactive). For the same molecule, the GI50 (UACC-62) was 1.02 µM (active), the GI50 (LOX IMVI) was 1.78 µM (inactive) and the GI50 (HCT-116) was 0.587 µM (active). The GI50 (SK-OV-3) was 0.979 µM (active), the GI50 (COLO 205) was 1.18 µM (inactive) and the GI50 (MDA-N) was 2.84 µM (inactive). The GI50 (RXF 393) was 0.406 µM (active), the GI50 (OVCAR-8) was 2.13 µM (inactive) and the GI50 (MOLT-4) was 0.807 µM (active). For the same molecule, the GI50 (NCI-H460) was 0.604 µM (active), the GI50 (UACC-257) was 0.962 µM (active) and the GI50 (TK-10) was 0.546 µM (active). For the same molecule, the GI50 (KM12) was 2.68 µM (inactive), the GI50 (HL-60) was 1.38 µM (inactive) and the GI50 (HOP-62) was 0.578 µM (active). For the same molecule, the GI50 (SK-MEL-5) was 0.395 µM (active), the GI50 (PC-3) was 0.333 µM (active) and the GI50 (CCRF-CEM) was 0.662 µM (active). The GI50 (HCC 2998) was 4.55 µM (inactive), the GI50 (NCI/ADR-RES) was 4.32 µM (inactive) and the GI50 (SNB-75) was 1.31 µM (inactive). For the same molecule, the GI50 (OVCAR-3) was 0.409 µM (active), the GI50 (HCT-15) was 1.32 µM and the GI50 (U-251) was 2.33 µM (inactive). The GI50 (SR) was 0.518 µM (active), the GI50 (786-0) was 1.92 µM (inactive) and the GI50 (SN12C) was 2.13 µM (inactive). For the same molecule, the GI50 (Malme-3M) was 4.51 µM (inactive), the GI50 (M14) was 4.33 µM (inactive) and the GI50 (OVCAR-5) was 1.57 µM (inactive). The GI50 (SNB-19) was 4.5 µM (inactive), the GI50 (NCI-H23) was 0.29 µM (active) and the GI50 (Hs-578T) was 0.575 µM (active). The GI50 (RPMI-8226) was 0.33 µM (active), the GI50 (SF-295) was 2.42 µM (inactive) and the GI50 (K562) was 0.368 µM (active). For the same molecule, the GI50 (SK-MEL-28) was 4.23 µM (inactive), the GI50 (OVCAR-4) was 1.35 µM (inactive) and the GI50 (NCI-H226) was 0.498 µM (active). The GI50 (MDA-MB-435) was 0.49 µM (active), the GI50 (SK-MEL-2) was 3.18 µM (inactive) and the GI50 (BT-549) was 0.376 µM (active). The GI50 (T47D) was 0.365 µM (active), the GI50 (SF-268) was 0.527 µM (active) and the GI50 (NCI-H522) was 0.49 µM (active). The GI50 (UO-31) was 0.706 µM (active), the GI50 (MDA-MB-231) was 2.03 µM (inactive) and the GI50 (A549) was 1.26 µM (inactive). The GI50 (SF-539) was 0.292 µM (active) and the GI50 (ACHN) was 0.48 µM (active).

For `COC(=O)c1cc(C(=CCC[C@H]2CC[C@@]3(C)C(CCC4C3CC[C@@]3(C)C4CC[C@@H]3C(C)CCCC(C)C)C2)c2cc(Cl)c(OC(=O)c3ccccc3)c(C(=O)OC)c2)cc(Cl)c1OC(=O)c1ccccc1` (some centres undefined), the GI50 (HT-29) was > 10 µM (inactive), the GI50 (IGROV-1) was > 10 µM (inactive) and the GI50 (DU-145) was > 10 µM (inactive). The GI50 (MCF7) was > 10 µM (inactive), the GI50 (SW-620) was > 10 µM (inactive) and the GI50 (UACC-62) was > 10 µM (inactive). The GI50 (LOX IMVI) was > 10 µM (inactive), the GI50 (HCT-116) was > 10 µM (inactive) and the GI50 (SK-OV-3) was > 10 µM (inactive). The GI50 (COLO 205) was > 10 µM (inactive), the GI50 (MDA-N) was > 10 µM (inactive) and the GI50 (RXF 393) was > 10 µM (inactive). For the same molecule, the GI50 (OVCAR-8) was > 10 µM (inactive), the GI50 (MOLT-4) was > 10 µM (inactive) and the GI50 (NCI-H460) was > 10 µM (inactive). For the same molecule, the GI50 (UACC-257) was > 10 µM (inactive), the GI50 (TK-10) was > 10 µM (inactive) and the GI50 (KM12) was > 10 µM (inactive). For the same molecule, the GI50 (HOP-92) was > 10 µM (inactive), the GI50 (HL-60) was > 10 µM (inactive) and the GI50 (HOP-62) was > 10 µM (inactive). For the same molecule, the GI50 (SK-MEL-5) was > 10 µM (inactive), the GI50 (PC-3) was > 10 µM (inactive) and the GI50 (CCRF-CEM) was > 10 µM (inactive). The GI50 (EKVX) was > 10 µM (inactive), the GI50 (HCC 2998) was > 10 µM (inactive) and the GI50 (NCI/ADR-RES) was > 10 µM (inactive). The GI50 (SNB-75) was > 10 µM (inactive), the GI50 (OVCAR-3) was > 10 µM (inactive) and the GI50 (HCT-15) was greater than 10 µM. For the same molecule, the GI50 (U-251) was > 10 µM (inactive), the GI50 (SR) was > 10 µM (inactive) and the GI50 (786-0) was > 10 µM (inactive). The GI50 (SN12C) was > 10 µM (inactive), the GI50 (Malme-3M) was > 10 µM (inactive) and the GI50 (M14) was > 10 µM (inactive). For the same molecule, the GI50 (OVCAR-5) was > 10 µM (inactive), the GI50 (SNB-19) was > 10 µM (inactive) and the GI50 (NCI-H23) was > 10 µM (inactive). The GI50 (Hs-578T) was > 10 µM (inactive), the GI50 (RPMI-8226) was > 10 µM (inactive) and the GI50 (SF-295) was > 10 µM (inactive). The GI50 (K562) was > 10 µM (inactive), the GI50 (SK-MEL-28) was > 10 µM (inactive) and the GI50 (OVCAR-4) was > 10 µM (inactive). For the same molecule, the GI50 (NCI-H226) was > 10 µM (inactive), the GI50 (MDA-MB-435) was > 10 µM (inactive) and the GI50 (CAKI-1) was > 10 µM (inactive). For the same molecule, the GI50 (SK-MEL-2) was > 10 µM (inactive), the GI50 (BT-549) was > 10 µM (inactive) and the GI50 (T47D) was > 10 µM (inactive). The GI50 (SF-268) was > 10 µM (inactive), the GI50 (NCI-H522) was > 10 µM (inactive) and the GI50 (UO-31) was > 10 µM (inactive). For the same molecule, the GI50 (MDA-MB-231) was > 10 µM (inactive), the GI50 (A549) was > 10 µM (inactive) and the GI50 (SF-539) was > 10 µM (inactive). The GI50 (ACHN) was > 10 µM (inactive).

Source: ChEMBL document CHEMBL1201862, “PubChem BioAssay data set” (2004)
